The compounds below were run against human NK3 receptor (Homo sapiens (Human), UniProt P29371) (assay: [3H]SR142801 competition binding assay). Conditions: membranes from HEK293 cells transiently expressing recombinant human NK3 receptor; [3H]SR142801 radioligand; read-out: Ki (uM) hNK3.
Protocol: [^3H]SR142801 Competition Binding Assay
hNK3 receptor binding experiment were performed using [^3H]SR142801 (Catalog No. TRK1035, specific activity: 74.0 Ci/mmol, Amersham, GE Healthcare UK limited, Buckinghamshire, UK) and membrane isolated from HEK293 cells transiently expressing recombinant human NK3 receptor. After thawing, the membrane homogenates were centrifuged at 48,000×g for 10 min at 4° C., the pellets were resuspended in the 50 mM Tris-HCl, 4 mM MnCl2, 1 μM phosphoramidon, 0.1% BSA binding buffer at pH 7.4 to a final assay concentration of 5 μg protein/well. For inhibition experiments, membranes were incubated with [^3H]SR142801 at a concentration equal to KD value of radioligand and 10 concentrations of the inhibitory compound (0.0003-10 μM) (in a total reaction volume of 500 μl) for 75 min at room temperature (RT). At the end of the incubation, membranes were filtered onto unitfilter (96-well white microplate with bonded GF/C filter preincubated 1 h in 0.3% PEI+0.3% BSA, Packard BioScience, Meriden, Conn.) with a Filtermate 196 harvester (Packard BioScience) and washed 4 times with ice-cold 50 mM Tris-HCl, pH 7.4 buffer. Nonspecific binding was measured in the presence of 10 μM SB222200 for both radioligands. The radioactivity on the filter was counted (5 min) on a Packard Top-count microplate scintillation counter with quenching correction after addition of 45 μl of microscint 40 (Can berra Packard S. A., Zurich, Switzerland) and shaking for 1 h. Inhibition curves were fitted according to the Hill equation: y=100/(1+(x/IC50)^nH), where nH=slope factor using Excel-fit 4 software (Microsoft). IC50 values were derived from the inhibition curve and the affinity constant (Ki) values were calculated using the Cheng-Prussoff equation Ki=IC50/(1+[L]/KD) where [L] is the concentration of radioligand and KD is its dissociation constant at the receptor, derived from the saturation isotherm. All experiments were performed in duplicate and the mean±standard error (SEM) of the individual Ki values was calculated.

human NK3 receptor, sequence (P29371 whole entry): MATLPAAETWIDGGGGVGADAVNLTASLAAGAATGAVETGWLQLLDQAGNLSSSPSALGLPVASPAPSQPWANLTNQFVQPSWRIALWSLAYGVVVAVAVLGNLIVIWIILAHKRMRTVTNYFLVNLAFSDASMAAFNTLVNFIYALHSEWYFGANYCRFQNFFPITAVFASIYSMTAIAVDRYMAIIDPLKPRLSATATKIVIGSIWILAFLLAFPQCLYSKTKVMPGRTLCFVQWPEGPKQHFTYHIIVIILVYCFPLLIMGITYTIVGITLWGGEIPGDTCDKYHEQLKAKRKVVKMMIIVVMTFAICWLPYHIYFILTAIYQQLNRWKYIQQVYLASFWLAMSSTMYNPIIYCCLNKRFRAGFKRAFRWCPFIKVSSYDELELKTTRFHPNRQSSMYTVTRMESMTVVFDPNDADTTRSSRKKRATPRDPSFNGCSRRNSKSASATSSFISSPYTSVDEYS

SMILES | Ki
Cc1noc(-c2ccc(C(=O)N3C[C@H](c4ccc(Cl)cc4)[C@@](C)(COc4ccc(Cl)cn4)C3)cc2)n1 (racemic) [Example 7, [(3RS,4RS)-4-(4-Chloro-phenyl)-3-(5-chloro-pyridin-2-yloxymethyl)-3-methyl-pyrrolidin-1-yl]-[4-(3-methyl-[1,2,4]oxadiazol-5-yl)-phenyl]-methanone] | 0.0043 µM
C[C@]1(COc2ccc(Cl)cn2)CN(C(=O)C2CCN(C3CCCCC3)CC2)C[C@@H]1c1ccc(Cl)cc1 (racemic) [Example 14, [(3RS,4RS)-4-(4-Chloro-phenyl)-3-(5-chloro-pyridin-2-yloxymethyl)-3-methyl-pyrrolidin-1-yl]-(1-cyclohexyl-piperidin-4-yl)-methanone] | 0.015 µM
C[C@]1(COc2ccc(Cl)cn2)CN(C(=O)c2ccc(-n3cccn3)nc2)C[C@@H]1c1ccc(Cl)cc1 (racemic) [Example 6, [(3RS,4RS)-4-(4-Chloro-phenyl)-3-(5-chloro-pyridin-2-yloxymethyl)-3-methyl-pyrrolidin-1-yl]-(6-pyrazol-1-yl-pyridin-3-yl)-methanone] | 0.0352 µM
CC(C)C(=O)N1CCC(C(=O)N2C[C@H](c3ccc(Cl)cc3)[C@@](C)(COc3ccc(Cl)cn3)C2)CC1 (racemic) [Example 13, 1-{4-[(3RS,4RS)-4-(4-Chloro-phenyl)-3-(5-chloro-pyridin-2-yloxymethyl)-3-methyl-pyrrolidine-1-carbonyl]-piperidin-1-yl}-2-methyl-propan-1-one] | 0.0087 µM
CC(=O)N1CCC(C(=O)N2C[C@H](c3ccc(Cl)cc3)[C@@](C)(COc3ccc(Cl)cn3)C2)CC1 (racemic) [Example 11, 1-{4-[(3RS,4RS)-4-(4-Chloro-phenyl)-3-(5-chloro-pyridin-2-yloxymethyl)-3-methyl-pyrrolidine-1-carbonyl]-piperidin-1-yl}-ethanone] | 0.0106 µM
C[C@]1(COc2ccc(Cl)cn2)CN(C(=O)C2CCOCC2)C[C@@H]1c1ccc(Cl)cc1 (racemic) [Example 10, [(3RS,4RS)-4-(4-Chloro-phenyl)-3-(5-chloro-pyridin-2-yloxymethyl)-3-methyl-pyrrolidin-1-yl]-(tetrahydro-pyran-4-yl)-methanone] | 0.0874 µM

Results, then the compound that gave them:

Ki | SMILES
0.0225 µM | CC(C)CN1CCC(C(=O)N2C[C@H](c3ccc(Cl)cc3)[C@@](C)(COc3ccc(Cl)cn3)C2)CC1 (racemic) [Example 12, [(3RS,4RS)-4-(4-Chloro-phenyl)-3-(5-chloro-pyridin-2-yloxymethyl)-3-methyl-pyrrolidin-1-yl]-(1-isobutyl-piperidin-4-yl)-methanone]
0.0451 µM | C[C@]1(COc2ccc(Cl)cn2)CN(C(=O)c2ccc(C#N)cc2)C[C@@H]1c1ccc(Cl)cc1 (racemic) [Example 8, 4-[(3RS,4RS)-4-(4-Chloro-phenyl)-3-(5-chloro-pyridin-2-yloxymethyl)-3-methyl-pyrrolidine-1-carbonyl]-benzonitrile]
0.0072 µM | CC1(C(=O)N2CCC(C(=O)N3C[C@H](c4ccc(Cl)cc4)[C@@](C)(COc4ccc(Cl)cn4)C3)CC2)CC1 (racemic) [Example 3, [(3RS,4RS)-4-(4-Chloro-phenyl)-3-(5-chloro-pyridin-2-yloxymethyl)-3-methyl-pyrrolidin-1-yl]-[1-(1-methyl-cyclopropanecarbonyl)-piperidin-4-yl]-methanone]
0.0618 µM | C[C@]1(COc2ccc(Cl)cn2)CN(C(=O)c2ccnc(Cl)c2)C[C@@H]1c1ccc(Cl)cc1 (racemic) [Example 5]
0.0478 µM | C[C@]1(COc2ccc(Cl)cn2)CN(C(=O)N2CCN(S(C)(=O)=O)CC2)C[C@@H]1c1ccc(Cl)cc1 (racemic) [Example 2, [(3RS,4RS)-4-(4-Chloro-phenyl)-3-(5-chloro-pyridin-2-yloxymethyl)-3-methyl-pyrrolidin-1-yl]-(4-methanesulfonyl-piperazin-1-yl)-methanone]
0.0563 µM | COc1ccc(C(=O)N2C[C@H](c3ccc(Cl)cc3)[C@@](C)(COc3ccc(Cl)cn3)C2)cn1 (racemic) [Example 9, [(3RS,4RS)-4-(4-Chloro-phenyl)-3-(5-chloro-pyridin-2-yloxymethyl)-3-methyl-pyrrolidin-1-yl]-(6-methoxy-pyridin-3-yl)-methanone]

Same assay, conditions: membranes from HEK293 cells transiently expressing recombinant human NK3 receptor; [3H]SR142801 radioligand; second half of table, head prints nM; read-out: Ki (nM) hNK3

SMILES | Ki
Cc1nc(-c2ccc(C(=O)N3C[C@H](c4ccc(Cl)cc4)[C@@](C)(COc4ccc(Cl)cn4)C3)cc2)no1 (racemic) [Example 24, [(3RS,4RS)-4-(4-Chloro-phenyl)-3-(5-chloro-pyridin-2-yloxymethyl)-3-methyl-pyrrolidin-1-yl]-[4-(5-methyl-[1,2,4]oxadiazol-3-yl)-phenyl]-methanone] | 0.0261 µM
CC(=O)c1ccc(N2CCC(C(=O)N3C[C@H](c4ccc(Cl)cc4)[C@@](C)(COc4ccc(Cl)cn4)C3)CC2)nc1 (racemic) [Example 18, 1-{4-[(3RS,4RS)-4-(4-Chloro-phenyl)-3-(5-chloro-pyridin-2-yloxymethyl)-3-methyl-pyrrolidine-1-carbonyl]-3,4,5,6-tetrahydro-2H-[1,2′]bipyridinyl-5′-yl}-ethanone] | 0.0059 µM
C[C@]1(COc2ccc(Cl)cn2)CN(C(=O)C2CCN(c3ccc(C#N)nc3)CC2)C[C@@H]1c1ccc(Cl)cc1 (racemic) [Example 25, 4-[(3RS,4RS)-4-(4-Chloro-phenyl)-3-(5-chloro-pyridin-2-yloxymethyl)-3-methyl-pyrrolidine-1-carbonyl]-3,4,5,6-tetrahydro-2H-[1,3′]bipyridinyl-6′-carbonitrile] | 0.0044 µM
Cc1ccc(N2CCC(C(=O)N3C[C@H](c4ccc(Cl)cc4)[C@@](C)(COc4ccc(Cl)cn4)C3)CC2)nc1 (racemic) [Example 15, [(3RS,4RS)-4-(4-Chloro-phenyl)-3-(5-chloro-pyridin-2-yloxymethyl)-3-methyl-pyrrolidin-1-yl]-(5′-methyl-3,4,5,6-tetrahydro-2H-[1,2′]bipyridinyl-4-yl)-methanone] | 0.015 µM
C[C@]1(COc2ccc(Cl)cn2)CN(C(=O)c2ccc(C#N)nc2)C[C@@H]1c1ccc(Cl)cc1 (racemic) [Example 21, 5-[(3RS,4RS)-4-(4-Chloro-phenyl)-3-(5-chloro-pyridin-2-yloxymethyl)-3-methyl-pyrrolidine-1-carbonyl]-pyridine-2-carbonitrile] | 0.039 µM
C[C@]1(COc2ccc(Cl)cn2)CN(C(=O)C2CCN(c3ccc(C(F)(F)F)cn3)CC2)C[C@@H]1c1ccc(Cl)cc1 (racemic) [Example 22, [(3RS,4RS)-4-(4-Chloro-phenyl)-3-(5-chloro-pyridin-2-yloxymethyl)-3-methyl-pyrrolidin-1-yl]-(5′-trifluoromethyl-3,4,5,6-tetrahydro-2H-[1,2′]bipyridinyl-4-yl)-methanone] | 0.0272 µM
C[C@]1(COc2ccc(Cl)cn2)CN(C(=O)C2CCN(c3ccc(F)cn3)CC2)C[C@@H]1c1ccc(Cl)cc1 (racemic) [Example 19, [(3RS,4RS)-4-(4-Chloro-phenyl)-3-(5-chloro-pyridin-2-yloxymethyl)-3-methyl-pyrrolidin-1-yl]-(5′-fluoro-3,4,5,6-tetrahydro-2H-[1,2′]bipyridinyl-4-yl)-methanone] | 0.0112 µM

Now from value to compound:

Ki | SMILES
0.0037 µM | C[C@]1(COc2ccc(Cl)cn2)CN(C(=O)C2CCN(c3ccc(C#N)cn3)CC2)C[C@@H]1c1ccc(Cl)cc1 (racemic) [Example 16, 4-[(3RS,4RS)-4-(4-Chloro-phenyl)-3-(5-chloro-pyridin-2-yloxymethyl)-3-methyl-pyrrolidine-1-carbonyl]-3,4,5,6-tetrahydro-2H-[1,2′]bipyridinyl-5′-carbonitrile]
0.0023 µM | C[C@]1(COc2ccc(Cl)cn2)CN(C(=O)C2CCN(c3ccc(C#N)cc3)CC2)C[C@@H]1c1ccc(Cl)cc1 (racemic) [Example 17, 4-{4-[(3RS,4RS)-4-(4-Chloro-phenyl)-3-(5-chloro-pyridin-2-yloxymethyl)-3-methyl-pyrrolidine-1-carbonyl]-piperidin-1-yl}-benzonitrile]
0.0193 µM | C[C@]1(COc2ccc(Cl)cn2)CN(C(=O)C2CCN(c3ccc(Cl)cn3)CC2)C[C@@H]1c1ccc(Cl)cc1 (racemic) [Example 20, [(3RS,4RS)-4-(4-Chloro-phenyl)-3-(5-chloro-pyridin-2-yloxymethyl)-3-methyl-pyrrolidin-1-yl]-(5′-chloro-3,4,5,6-tetrahydro-2H-[1,2′]bipyridinyl-4-yl)-methanone]
0.0114 µM | COc1ccc(N2CCC(C(=O)N3C[C@H](c4ccc(Cl)cc4)[C@@](C)(COc4ccc(Cl)cn4)C3)CC2)nn1 [Example 26, [(3R,4R)-4-(4-Chloro-phenyl)-3-(5-chloro-pyridin-2-yloxymethyl)-3-methyl-pyrrolidin-1-yl]-[1-(6-methoxy-pyridazin-3-yl)-piperidin-4-yl]-methanone]
